Reference: patent US10015967B2, “Form of isoxadifen-ethyl, a process for its preparation and use of the same” (ROTAM AGROCHEM INTERNATIONAL COMPANY LIMITED, priority 2015, dated 2018)

Assays:
[1] = Stability of isoxadifen-ethyl (hydrolysis in water or during storage), general statement; format: physicochemical; conditions: dissolved or dispersed in water; storage with exposure to moisture
[2] = Stability test: aging of formulation samples in heated ovens per CIPAC MT 46.3, isoxadifen-ethyl content by HPLC; format: physicochemical; conditions: for RPH % (relative percentage of hydrolysis): stored at 54° C. for 1 week
Protocol: The stability of the isoxadifen-ethyl in these compositions was determined by aging samples in heated ovens having the same atmosphere therein, and then comparing the isoxadifen-ethyl content before and after aging to determine relative percentage of hydrolysis (RPH). RPH was calculated by the following equation: […]
Isoxadifen-ethyl content was determined by assaying the compositions with high-pressure liquid chromatography (HPLC) using reverse phase columns and eluants.
Samples prepared in Examples 4, 5 and 6 were stored at 54° C. for 1 week. The procedures are followed according to CIPAC MT 46.3. The concentration of isoxadifen-ethyl was measured at the end of each storage time by HPLC.

[3] = Example 4 oil based suspension concentrate (OD) with tribenuron-methyl, 10 weight % isoxadifen-ethyl
[4] = Example 5 soluble granules (SG) with metsulfuron-methyl, 7 weight % isoxadifen-ethyl
[5] = Example 6 water dispersible granules (WG) with metsulfuron-methyl, 7 weight % isoxadifen-ethyl

Compound	stability (hydrolysis) [1]	RPH % (relative percentage of hydrolysis) [2, 3] [%]	RPH % (relative percentage of hydrolysis) [2, 4] [%]	RPH % (relative percentage of hydrolysis) [2, 5] [%]	stability when mixing with sulfonylurea herbicides in formulations ([2]; relative to formulations containing the amorphous form)
CCOC(=O)C1=NOC(c2ccccc2)(c2ccccc2)C1 [Amorphous isoxadifen-ethyl, Ethyl 4,5-dihydro-5,5-diphenyl-3-isoxazolecarboxylate]	highly unstable	50	40	45	
CCOC(=O)C1=NOC(c2ccccc2)(c2ccccc2)C1 [Isoxadifen-ethyl, crystalline modification I] [Ethyl 4,5-dihydro-5,5-diphenyl-3-isoxazolecarboxylate]		0	0	0	significant increase in its stability
